Earlier results in patent US20210220286A1, “PHARMACEUTICAL COMPOSITION COMPRISING AMORPHOUS SUNITINIB” (SYNTHON B.V., priority 2018, published 2021).

Details: WO03016305, cited from earlier work; for stability of polymorphic form: ambient conditions

Compound: CCN(CC)CCNC(=O)c1c(C)[nH]c(/C=C2\C(=O)Nc3ccc(F)cc32)c1C [Form II, sunitinib L-malate]
- stability of polymorphic form: less stable
- hygroscopicity of polymorphic form: hygroscopic
- solubility of polymorphic form (compared with form I): more soluble

Compound: CCN(CC)CCNC(=O)c1c(C)[nH]c(/C=C2\C(=O)Nc3ccc(F)cc32)c1C [Form I, sunitinib L-malate]
- stability of polymorphic form: most stable form
